Experimental data reported in PMC10763615, “Identification and engineering of potent cyclic peptides with selective or promiscuous binding through biochemical profiling and bioinformatic data analysis” (RSC Chemical Biology, 2023).
Read-outs that look alike come from different tables or passages of the source.

Experiments:
[1] = biological target: T1, FGF-R4 ECD (Homo sapiens, UniProt P22455); assay: multi-concentration BLI of purified peptides; type: binding
T1 construct: DNA constructs for the extracellular domain (ECD) of human FGF-; HPC4 (C); made in house; host or cells: HEK 293-6E
T1 sequence (P22455 22-369 limits assumed): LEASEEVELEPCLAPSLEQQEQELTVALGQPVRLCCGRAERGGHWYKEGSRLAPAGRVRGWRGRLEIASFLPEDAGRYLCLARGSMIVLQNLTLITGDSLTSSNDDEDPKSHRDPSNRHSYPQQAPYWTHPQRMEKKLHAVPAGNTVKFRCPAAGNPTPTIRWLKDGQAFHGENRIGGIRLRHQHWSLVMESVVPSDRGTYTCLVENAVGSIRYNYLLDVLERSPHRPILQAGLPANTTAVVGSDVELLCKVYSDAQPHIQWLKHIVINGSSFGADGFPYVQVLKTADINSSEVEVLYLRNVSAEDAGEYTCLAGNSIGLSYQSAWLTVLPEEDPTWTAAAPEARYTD
Experimental: (§1) KD affinity binding measurements were obtained by biolayer interferometry (BLI) instruments (Fortebio Octet HTX, or Sartorius Octet RH16 using either 8 or 16 channel mode.
(§2) For single concentration binding experiments, 50 μM peptide stocks in folding buffer were diluted 1:50 in mRNA display selection buffer (PBS pH7.4 supplemented with 0.05% Tween-20 and 0.01% BSA) in either a 96 well black plate, or a 384 well tilted bottom microplate (ForteBio). Biotinylated FGF-R protein was loaded onto Streptavidin-functionalised biosensors (ForteBio) and immersed into ~1 μM peptide to obtain association kinetics curves. Dissociation kinetics curves were obtained by subsequent immersion of ligand-associated loaded sensors into a 1:50 dilution of folding buffer in mRNA display selection buffer. Fitted KD data was adjusted for concentration as determined by UPLC-CAD.
(§3) For accurate multi-concentration KD determination, dilution series of each peptide were made, and association and dissociation kinetics curves were obtained as above for each concentration to fit a multi-point KD binding model. Data collection and analysis was performed using the Octet Instrument Control […]
(§4) concentration assay kinetics curves shown in supplementary Figure S 19-24.

[2] = biological target: T2, FGF-R1C ECD (Homo sapiens, UniProt P11362); assay: biochemical; type: binding; set-up: DNA constructs for the extracellular domain (ECD) of human FGF-; HPC4 (C); made in house; host or cells: HEK 293-6E
T2 sequence (P11362 22-376 limits assumed): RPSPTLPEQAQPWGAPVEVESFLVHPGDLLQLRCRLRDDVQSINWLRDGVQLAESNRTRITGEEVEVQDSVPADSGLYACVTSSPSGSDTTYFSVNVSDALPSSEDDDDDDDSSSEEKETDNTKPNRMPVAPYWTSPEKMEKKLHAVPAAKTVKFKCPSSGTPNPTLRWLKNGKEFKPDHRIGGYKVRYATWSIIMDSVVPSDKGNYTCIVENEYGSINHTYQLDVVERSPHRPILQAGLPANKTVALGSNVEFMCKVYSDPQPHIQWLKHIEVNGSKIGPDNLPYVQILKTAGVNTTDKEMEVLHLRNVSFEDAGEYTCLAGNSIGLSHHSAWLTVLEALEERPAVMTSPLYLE
Method in brief: (§5)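 Biolayer interferometry with biotinylated FGF-R ECD on streptavidin biosensors in PBS pH 7.4, 0.05% Tween-20, 0.01% BSA. Multi-concentration: purified peptide dilution series fitted to a multi-point KD model.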

[3] = biological target: T3, FGF-R3C ECD (Homo sapiens, UniProt P22607); assay: biochemical; type: binding; set-up: DNA constructs for the extracellular domain (ECD) of human FGF-; HPC4 (C); made in house; host or cells: HEK 293-6E
T3 sequence (P22607 23-375 limits assumed): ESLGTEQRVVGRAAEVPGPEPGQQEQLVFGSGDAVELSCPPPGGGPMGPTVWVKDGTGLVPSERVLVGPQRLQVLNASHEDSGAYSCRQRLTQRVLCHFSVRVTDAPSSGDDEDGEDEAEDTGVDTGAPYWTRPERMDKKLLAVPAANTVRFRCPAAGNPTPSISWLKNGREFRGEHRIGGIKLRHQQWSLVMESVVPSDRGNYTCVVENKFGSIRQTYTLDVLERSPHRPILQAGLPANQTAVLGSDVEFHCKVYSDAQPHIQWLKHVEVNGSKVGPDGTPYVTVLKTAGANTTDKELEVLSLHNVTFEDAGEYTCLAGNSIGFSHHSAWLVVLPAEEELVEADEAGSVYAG
Method in brief: as §5

[4] = biological target: T1, FGF-R4 ECD; assay: single concentration BLI of crude peptides; type: binding; settings: read-out: KD (4)
Method in brief: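 Streptavidin biosensors carrying biotinylated FGF receptor ECD were immersed in peptide (~1 μM for crude single-point runs, a concentration series for purified peptides) and then in peptide-free buffer. KD was obtained by fitting the BLI association and dissociation curves.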

[5] = biological target: T2, FGF-R1C ECD; assay: biochemical
Experimental: as §1, §2, §3, §4

[6] = biological target: T3, FGF-R3C ECD; assay: biochemical
Experimental: as §1, §2, §3, §4

[7] = crude NNK peptides, single concentration BLI (Table S3)
[8] = purified trimer-18 library peptides
[9] = crude T18 selection 1 (1:1:1) peptides, single concentration BLI (Table S4)

Structure (SMILES) | Kd ([1]; purified NNK library peptides) [nM] | Kd [2] [nM] | Kd [3] [nM] | Kd [4, 7] [nM] | Kd [5] [nM] | Kd [6] [nM] | Kd [1, 8] [nM] | Kd [4, 9] [nM] | Kd ([2]; read-out: KD (1C)) [nM] | Kd ([3]; read-out: KD(3C)) [nM] | Kd ([5]; read-out: R1C KD, purified trimer-18 library peptides, multi-concentration BLI) [nM] | Kd ([6]; read-out: R3C KD, purified trimer-18 library peptides, multi-concentration BLI) [nM]
CC[C@H](C)[C@@H]1NC(=O)[C@H](CCCCN)NC(=O)[C@H](Cc2ccc(O)cc2)NC(=O)[C@H]([C@@H](C)CC)NC(=O)[C@H](CO)NC(=O)[C@H](C(C)C)NC(=O)[C@H](CC(C)C)NC(=O)[C@@H](NC(=O)[C@H](CCSC)NC(C)=O)CSSC[C@@H](C(=O)NCC(=O)N[C@@H](CO)C(=O)NCC(=O)N[C@@H](CO)C(=O)N[C@@H](CC(=O)O)C(=O)N[C@@H](Cc2ccc(O)cc2)C(=O)N[C@@H](CCCCN)C(=O)N[C@@H](CC(=O)O)C(=O)N[C@@H](CC(=O)O)C(=O)N[C@@H](CC(=O)O)C(=O)N[C@@H](CC(=O)O)C(=O)N[C@@H](CCCCN)C(N)=O)NC(=O)[C@H]([C@@H](C)O)NC(=O)[C@H](CCCNC(=N)N)NC(=O)[C@H](CCSC)NC1=O [4.1] | > 1000 | > 10000 | 6120 | 193 | > 1000 | > 1000 |  |  |  |  |  | 
CSCC[C@H](NC(C)=O)C(=O)N[C@H]1CSSC[C@@H](C(=O)NCC(=O)N[C@@H](CO)C(=O)NCC(=O)N[C@@H](CO)C(=O)N[C@@H](CC(=O)O)C(=O)N[C@@H](Cc2ccc(O)cc2)C(=O)N[C@@H](CCCCN)C(=O)N[C@@H](CC(=O)O)C(=O)N[C@@H](CC(=O)O)C(=O)N[C@@H](CC(=O)O)C(=O)N[C@@H](CC(=O)O)C(=O)N[C@@H](CCCCN)C(N)=O)NC(=O)[C@H](CCCNC(=N)N)NC(=O)[C@H](CC(C)C)NC(=O)[C@H](CCCCN)NC(=O)[C@H]([C@@H](C)O)NC(=O)[C@H](C(C)C)NC(=O)[C@H](CCCCN)NC(=O)[C@H](Cc2ccc(O)cc2)NC(=O)[C@H](Cc2c[nH]c3ccccc23)NC(=O)[C@H]([C@@H](C)O)NC(=O)[C@H](C(C)C)NC1=O [4.4] | > 1000 | > 10000 | > 10000 | 57 | > 1000 | > 1000 |  |  |  |  |  | 
CSCC[C@H](NC(C)=O)C(=O)N[C@H]1CSSC[C@@H](C(=O)NCC(=O)N[C@@H](CO)C(=O)NCC(=O)N[C@@H](CO)C(=O)N[C@@H](CCC(=O)O)C(=O)N[C@@H](CCC(=O)O)C(=O)NCC(=O)N[C@@H](CO)C(=O)NCC(=O)N[C@@H](CO)C(=O)N[C@@H](CC(=O)O)C(=O)N[C@@H](Cc2ccc(O)cc2)C(=O)N[C@@H](CCCCN)C(=O)N[C@@H](CC(=O)O)C(=O)N[C@@H](CC(=O)O)C(=O)N[C@@H](CC(=O)O)C(=O)N[C@@H](CC(=O)O)C(=O)N[C@@H](CCCCN)C(N)=O)NC(=O)[C@H](CCCNC(=N)N)NC(=O)[C@H](CCCNC(=N)N)NC(=O)[C@H](Cc2c[nH]c3ccccc23)NC(=O)[C@H](CC(C)C)NC(=O)[C@H](CCCCN)NC(=O)[C@H](Cc2ccc(O)cc2)NC(=O)[C@H](Cc2ccc(O)cc2)NC(=O)[C@H](Cc2ccc(O)cc2)NC(=O)[C@H](CC(C)C)NC(=O)[C@H]([C@@H](C)O)NC(=O)[C@H]([C@@H](C)O)NC1=O [4.9] |  | 699 | 2250 |  | > 1000 | > 1000 | > 1000 | 1 |  |  |  | 
CSCC[C@H](NC(C)=O)C(=O)N[C@H]1CSSC[C@@H](C(=O)NCC(=O)N[C@@H](CO)C(=O)NCC(=O)N[C@@H](CO)C(=O)N[C@@H](CCC(=O)O)C(=O)N[C@@H](CCC(=O)O)C(=O)NCC(=O)N[C@@H](CO)C(=O)NCC(=O)N[C@@H](CO)C(=O)N[C@@H](CC(=O)O)C(=O)N[C@@H](Cc2ccc(O)cc2)C(=O)N[C@@H](CCCCN)C(=O)N[C@@H](CC(=O)O)C(=O)N[C@@H](CC(=O)O)C(=O)N[C@@H](CC(=O)O)C(=O)N[C@@H](CC(=O)O)C(=O)N[C@@H](CCCCN)C(N)=O)NC(=O)[C@H](CCCCN)NC(=O)[C@H](CCCCN)NC(=O)[C@H](Cc2c[nH]c3ccccc23)NC(=O)[C@H](CC(C)C)NC(=O)[C@H](CC(C)C)NC(=O)[C@H](Cc2ccc(O)cc2)NC(=O)[C@H](Cc2ccc(O)cc2)NC(=O)[C@H](Cc2ccc(O)cc2)NC(=O)[C@H](CC(C)C)NC(=O)[C@H](Cc2c[nH]cn2)NC(=O)[C@H](CCCCN)NC1=O [4.10] |  |  |  |  |  |  | 2 | 1 | 1030 | 928 | > 1000 | 519
